Columns and labels:
[1] = molecular target: Opioid receptors; mu/kappa/delta (Homo sapiens, UniProt P41145+P41143+P35372); experiment: Evaluated the ability to protect against the irreversible antagonism of morphines effects by beta-FNA in guinea pig ileal longitudinal muscle.; format: functional, tissue-based, Cavia porcellus, Muscle tissue
[2] = Compound was tested for ability to protect against the irreversible antagonism of morphine''s effects by beta-FNA in guinea pig ileum at 1 uM concentration; format: functional
[3] = Compound was tested for ability to protect against the irreversible antagonism of morphine''s effects by beta-FNA in guinea pig ileum at 10 nM concentration, ratio is IC50 after treatment/control IC50; format: functional
[4] = Compound was evaluated for equilibrium constant, Ke; format: ADME
[5] = Compound was tested for ability to protect against the irreversible antagonism of morphine''s effects by beta-FNA in guinea pig ileum at 200 nM concentration; format: functional
[6] = Compound was tested for ability to protect against the irreversible antagonism of morphine''s effects by beta-FNA in guinea pig ileum at 20 nM concentration; format: functional
[7] = Compound was tested for ability to protect against the irreversible antagonism of morphine''s effects by beta-FNA in guinea pig ileum at 2 nM concentration; format: functional
[8] = Effect of protecte expressed as morphine IC50 ratio (IC50 after treatment/control IC50) at 200 nM concentration; format: functional

| SMILES | IC50 [1] [nM] | Ratio [2] | Ratio [3] | Ke [4] | Ratio [5] | Ratio [6] | Ratio [7] | Ratio [8] |
| --- | --- | --- | --- | --- | --- | --- | --- | --- |
| COC(=O)/C=C/C(=O)N[C@@H]1CC[C@@]2(O)C3Cc4ccc(O)c5c4C2(CCN3C)C1O5 (stereo partly specified) | 22 | 5.2 | – | – | – | – | – | – |
| CCOc1ccc2c(c1)C1(C)CCN(CC3CC3)C(C2=O)C1C (stereo unspecified) [ETHYLKETAZOCINE] | 0.6 | – | 4.6 | – | – | – | – | – |
| C=CCN1CC[C@]23c4c5ccc(O)c4O[C@H]2[C@@H](O)C=C[C@H]3[C@H]1C5 [NALORPHINE] | 28 | 1.4 | – | 4.5 | 1.9 | – | – | – |
| C=CCN1CC[C@]23c4c5ccc(O)c4O[C@H]2C(=O)CC[C@@]3(O)[C@H]1C5 [NALOXONE] | – | – | – | 1.2 | – | 1.9 | 3.4 | 1.1 |
| O=C1CC[C@@]2(O)[C@H]3Cc4ccc(O)c5c4[C@@]2(CCN3CC2CC2)[C@H]1O5 [NALTREXONE] | – | – | – | 0.38 | – | 1 | 2.4 | 1 |

— ChEMBL document CHEMBL1122316, “Different receptor sites mediate opioid agonism and antagonism” (J Med Chem, 1983)
